Measured values from patent US9670227B2, “Thienopyrimidine derivatives, a process for their preparation and pharmaceutical compositions containing them” (LES LABORATOIRES SERVIER, priority 2013, dated 2017).
Where two headings read alike, the source gives them in different places.

Legend:
[1] = system: H929 multiple myeloma tumour line; assay: In vitro cytotoxicity, Microculture Tetrazolium Assay; type: cell-based; settings: Homo sapiens, NCI-H929, 48 h, H929 cells, 48 hours exposure, MTT; read-out: IC50 (μM) MTT H929
Method: The cytotoxicity studies were carried out on the H929 multiple myeloma tumour line.
The cells are distributed onto microplates and exposed to the test compounds for 48 hours.

Mcl-1 protein = Mcl-1 protein (UniProtKB primary accession number: Q07820) (Homo sapiens, UniProt Q07820); assay: Inhibition of Mcl-1 by fluorescence polarisation, Method 1; type: binding; settings: read-out: IC50 (M) Mcl-1 FP
Mcl-1 protein, sequence (Q07820 whole entry): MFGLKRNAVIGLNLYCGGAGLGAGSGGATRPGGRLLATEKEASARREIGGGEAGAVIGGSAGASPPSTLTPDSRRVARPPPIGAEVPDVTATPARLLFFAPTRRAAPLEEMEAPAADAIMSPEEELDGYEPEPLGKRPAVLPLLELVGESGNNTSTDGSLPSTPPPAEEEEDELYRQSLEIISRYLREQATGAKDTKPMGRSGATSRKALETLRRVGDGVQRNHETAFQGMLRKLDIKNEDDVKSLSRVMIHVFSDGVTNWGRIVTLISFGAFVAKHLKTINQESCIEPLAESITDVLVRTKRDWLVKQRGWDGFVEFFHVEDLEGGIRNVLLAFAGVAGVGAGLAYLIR
Summary of the method: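 An 11-point DMSO dilution of compound is mixed with buffer (10 mM HEPES, 150 mM NaCl, 0.05% Tween 20, pH 7.4) carrying 1 nM fluorescein-labelled ligand and 5 nM Mcl-1, final concentrations. Displacement is monitored by fluorescence polarisation.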

[2] = fluorescence polarisation test, Method 2 values are underlined in the patent (underlining not visible here)
[3] = fluorescence polarisation, Method 1, or Method 2

| Compound | IC50 [1] | IC50 (Mcl-1 protein; [2]) | IC50 (Mcl-1 protein; [3]) |
| --- | --- | --- | --- |
| Cc1c(-c2c(-c3ccc(F)cc3)sc3ncnc(OC(Cc4ccccc4OCCF)C(=O)O)c23)ccc(OCCN2CCN(C)CC2)c1Cl [Example 103, (2R)-2-{[(5Sa)-5-{3-chloro-2-methyl-4-[2-(4-methylpiperazin-1-yl)ethoxy]phenyl}-6-(4-fluorophenyl)thieno[2,3-d]pyrimidin-4-yl]oxy}-3-[2-(2-fluoroethoxy)phenyl]propanoic acid] | 0.214 µM | 2.4e-08 M |  |
| COc1ccccc1CC(Oc1ncnc2sc(-c3ccco3)c(-c3ccc(OCCN(C)C)c(Cl)c3C)c12)C(=O)O [Example 320, (2R)-2-{[(5Sa)-5-{3-chloro-4-[2-(dimethylamino)ethoxy]-2-methylphenyl}-6-(furan-2-yl)thieno[2,3-d]pyrimidin-4-yl]oxy}-3-(2-methoxyphenyl)propanoic acid] | 0.471 µM | 6.5e-09 M |  |
| COc1cc(COc2ccccc2CC(Oc2ncnc3sc(-c4ccc(F)cc4)c(-c4ccc(OCCN5CCN(C)CC5)c(Cl)c4C)c23)C(=O)O)nc(OC)n1 [Example 8, (2R)-2-{[(5Sa)-5-{3-chloro-2-methyl-4-[2-(4-methylpiperazin-1-yl)ethoxy]phenyl}-6-(4-fluorophenyl)thieno[2,3-d]pyrimidin-4-yl]oxy}-3-{2-[(2,6-dimethoxypyrimidin-4-yl)methoxy]phenyl}propanoic acid] | 0.145 µM | 1.6e-08 M |  |
| COc1ccccc1CC(Oc1ncnc2sc(-c3ccco3)c(-c3ccc(OCC4CCCCN4C)c(Cl)c3C)c12)C(=O)O (single isomer, unassigned) [Example 309, (2R)-2-{[(5Sa)-5-{3-chloro-2-methyl-4-[((2S or R)-1-methylpiperidin-2-yl)methoxy]phenyl}-6-(furan-2-yl)thieno[2,3-d]pyrimidin-4-yl]oxy}-3-(2-methoxyphenyl)propanoic acid] | 1.48 µM | 1e-08 M |  |
| Cc1c(-c2c(-c3ccoc3)sc3ncnc(OC(Cc4ccccc4)C(=O)O)c23)ccc(OCCN2CCN(C)CC2)c1Cl [Example 509, (2R)-2-{[(5Sa)-5-{3-chloro-2-methyl-4-[2-(4-methylpiperazin-1-yl)ethoxy]phenyl}-6-(furan-3-yl)thieno[2,3-d]pyrimidin-4-yl]oxy}-3-phenylpropanoic acid] | 1.46 µM |  | 6.2e-08 M |
| COc1ccc(-c2nccc(COc3ccccc3CC(Oc3ncnc4sc(-c5ccc(F)cc5)c(-c5ccc(OCCN6CCN(C)CC6)c(Cl)c5C)c34)C(=O)O)n2)cn1 [Example 111, (2R)-2-{[(5Sa)-5-{3-chloro-2-methyl-4-[2-(4-methylpiperazin-1-yl)ethoxy]phenyl}-6-(4-fluorophenyl)thieno[2,3-d]pyrimidin-4-yl]oxy}-3-(2-{[2-(6-methoxypyridin-3-yl)pyrimidin-4-yl]methoxy}phenyl)propanoic acid] | 0.008 µM | 3.3e-09 M |  |
| CCn1nccc1COc1ccccc1CC(Oc1ncnc2sc(-c3ccco3)c(-c3ccc(OCCN4CCN(C)CC4)c(Cl)c3C)c12)C(=O)O [Example 264, (2R)-2-{[(5Sa)-5-{3-chloro-2-methyl-4-[2-(4-methylpiperazin-1-yl)ethoxy]phenyl}-6-(furan-2-yl)thieno[2,3-d]pyrimidin-4-yl]oxy}-3-{2-[(1-ethyl-1H-pyrazol-5-yl)methoxy]phenyl}propanoic acid] | 0.034 µM | 9.1e-09 M |  |
| Cc1c(-c2c(-c3ccc(F)cc3)sc3ncnc(OC(Cc4ccccc4OCc4ccc(F)cn4)C(=O)O)c23)ccc(OCCN2CCN(C)CC2)c1Cl [Example 10, (2R)-2-{[(5Sa)-5-{3-chloro-2-methyl-4-[2-(4-methylpiperazin-1-yl)ethoxy]phenyl}-6-(4-fluorophenyl)thieno[2,3-d]pyrimidin-4-yl]oxy}-3-{2-[(5-fluoropyridin-2-yl)methoxy]phenyl}propanoic acid] | 0.275 µM | 9.7e-09 M |  |
| COCCNC(=O)COc1ccccc1CC(Oc1ncnc2sc(-c3ccc(F)o3)c(-c3ccc(OCCN4CCN(C)CC4)c(Cl)c3C)c12)C(=O)O [Example 157, (2R)-2-{[(5Sa)-5-{3-chloro-2-methyl-4-[2-(4-methylpiperazin-1-yl)ethoxy]phenyl}-6-(5-fluorofuran-2-yl)thieno[2,3-d]pyrimidin-4-yl]oxy}-3-(2-{2-[(2-methoxyethyl)amino]-2-oxoethoxy}phenyl)propanoic acid] | 0.286 µM | 7e-09 M |  |
| CSc1nccc(COc2ccccc2CC(Oc2ncnc3sc(-c4ccc(F)cc4)c(-c4ccc(OCCN5CCN(C)CC5)c(Cl)c4C)c23)C(=O)O)n1 [Example 65, (2R)-2-{[(5Sa)-5-{3-chloro-2-methyl-4-[2-(4-methylpiperazin-1-yl)ethoxy]phenyl}-6-(4-fluorophenyl)thieno[2,3-d]pyrimidin-4-yl]oxy}-3-(2-{[2-(methylsulfanyl)pyrimidin-4-yl]methoxy}phenyl)propanoic acid] | 0.043 µM | 1e-08 M |  |
| COc1cc(COc2ccccc2CC(Oc2ncnc3sc(-c4ccc(F)cc4)c(-c4ccc(OCCN5CCN(C)CC5)c(Cl)c4C)c23)C(=O)O)nc(-c2ccccc2)n1 [Example 7, (2R)-2-{[(5Sa)-5-{3-chloro-2-methyl-4-[2-(4-methylpiperazin-1-yl)ethoxy]phenyl}-6-(4-fluorophenyl)thieno[2,3-d]pyrimidin-4-yl]oxy}-3-{2-[(6-methoxy-2-phenylpyrimidin-4-yl)methoxy]phenyl}propanoic acid] | 0.066 µM | 8.6e-09 M |  |
| Cc1c(-c2c(-c3ccc(F)cc3)sc3ncnc(OC(Cc4ccccc4OCc4ccnc(OCC(F)(F)F)n4)C(=O)O)c23)ccc(OCCN(C)C)c1Cl [Example 131, (2R)-2-{[(5Sa)-5-{3-chloro-4-[2-(dimethylamino)ethoxy]-2-methylphenyl}-6-(4-fluorophenyl)thieno[2,3-d]pyrimidin-4-yl]oxy}-3-(2-{[2-(2,2,2-trifluoroethoxy)pyrimidin-4-yl]methoxy}phenyl)propanoic acid] | 0.039 µM | 7.9e-09 M |  |
| COc1ccccc1CC(Oc1ncnc2sc(-c3cccc(C(F)(F)F)c3)c(-c3ccc(OCCN4CCN(C)CC4)c(Cl)c3C)c12)C(=O)O [Example 549, (2R)-2-[((5Sa)-5-{3-chloro-2-methyl-4-[2-(4-methylpiperazin-1-yl)ethoxy]phenyl}-6-[3-(trifluoromethyl)phenyl]thieno[2,3-d]pyrimidin-4-yl)oxy]-3-(2-methoxyphenyl)propanoic acid] | 1.5 µM |  | 1.3e-07 M |
| CCN(C)CCOc1ccc(-c2c(-c3ccc(F)cc3)sc3ncnc(OC(Cc4ccccc4OCc4ccnc(-c5ccccc5F)n4)C(=O)O)c23)c(C)c1Cl [Example 747, (2R)-2-{[(5Sa)-5-(3-chloro-4-{2-[ethyl(methyl)amino]ethoxy}-2-methylphenyl)-6-(4-fluorophenyl)thieno[2,3-d]pyrimidin-4-yl]oxy}-3-(2-{[2-(2-fluorophenyl)pyrimidin-4-yl]methoxy}phenyl)propanoic acid] | 0.0263 µM |  | 3.6e-09 M |
| COc1ccccc1-c1nccc(COc2ccccc2CC(Oc2ncnc3sc(-c4ccc(OCc5ccccc5C)cc4)c(-c4ccc(OCCN5CCN(C)CC5)c(Cl)c4C)c23)C(=O)O)n1 [Example 767, (2R)-2-[((5Sa)-5-{3-chloro-2-methyl-4-[2-(4-methylpiperazin-1-yl)ethoxy]phenyl}-6-{4-[(2-methylbenzyl)oxy]phenyl}thieno[2,3-d]pyrimidin-4-yl)oxy]-3-(2-{[2-(2-methoxyphenyl)pyrimidin-4-yl]methoxy}phenyl)propanoic acid] | 0.05 µM |  | 1.73e-09 M |
| Cc1c(-c2c(-c3ccco3)sc3ncnc(OC(Cc4ccccc4SCC(F)(F)F)C(=O)O)c23)ccc(OCCN2CCN(C)CC2)c1Cl [Example 362, (2R)-2-{[(5Sa)-5-{3-chloro-2-methyl-4-[2-(4-methylpiperazin-1-yl)ethoxy]phenyl}-6-(furan-2-yl)thieno[2,3-d]pyrimidin-4-yl]oxy}-3-{2-[(2,2,2-trifluoroethyl)sulfanyl]phenyl}propanoic acid] | 1 µM | 2.6e-08 M |  |
| Cc1c(-c2c(-c3ccco3)sc3ncnc(OC(Cc4ccccc4OCc4ccnn4C4CCCC4)C(=O)O)c23)ccc(OCCN2CCN(C)CC2)c1Cl [Example 262, (2R)-2-{[(5Sa)-5-{3-chloro-2-methyl-4-[2-(4-methylpiperazin-1-yl)ethoxy]phenyl}-6-(furan-2-yl)thieno[2,3-d]pyrimidin-4-yl]oxy}-3-{2-[(1-cyclopentyl-1H-pyrazol-5-yl)methoxy]phenyl}propanoic acid] | 0.023 µM | 3.9e-09 M |  |
| COc1cc(F)cc(-c2sc3ncnc(OC(Cc4ccccc4OC)C(=O)O)c3c2-c2ccc(OCCN3CCN(C)CC3)c(Cl)c2C)c1 [Example 528, (2R)-2-{[(5Sa)-5-{3-chloro-2-methyl-4-[2-(4-methylpiperazin-1-yl)ethoxy]phenyl}-6-(3-fluoro-5-methoxyphenyl)thieno[2,3-d]pyrimidin-4-yl]oxy}-3-(2-methoxyphenyl)propanoic acid] | 0.334 µM |  | 1.6e-08 M |
| Cc1c(-c2c(-c3ccco3)sc3ncnc(OC(Cc4ccccc4OCc4ccnc(NCc5ccccc5)n4)C(=O)O)c23)ccc(OCCN2CCN(C)CC2)c1Cl [Example 254, (2R)-3-(2-{[2-(benzylamino)pyrimidin-4-yl]methoxy}phenyl)-2-{[(5Sa)-5-{3-chloro-2-methyl-4-[2-(4-methylpiperazin-1-yl)ethoxy]phenyl}-6-(furan-2-yl)thieno[2,3-d]pyrimidin-4-yl]oxy}propanoic acid] | 0.044 µM | 3.3e-09 M |  |
